Test results: patent US4730005A, “Leukotriene antagonist” (SmithKline Beckman Corporation, priority 1986, dated 1988)

Assays:
[1] = target: T1, leukotriene D4 (LTD4) induced contraction of guinea pig tracheal tissues (Cavia porcellus, UniProt Q2NNR5); assay: in vitro inhibition of LTD4 induced contraction of guinea pig tracheal spiral strips; format: cell-based, guinea pig (adult male albino Hartley strain); conditions: guinea pig trachea, LTD4 agonist, 30 min pretreatment with test compound
T1 construct: Guinea pig (adult male albino Hartley strain) tracheal spiral strips; from tissue; host or cells: guinea pig trachea (spiral strips, adult male albino Hartley strain)
T1 sequence (Q2NNR5 1-340): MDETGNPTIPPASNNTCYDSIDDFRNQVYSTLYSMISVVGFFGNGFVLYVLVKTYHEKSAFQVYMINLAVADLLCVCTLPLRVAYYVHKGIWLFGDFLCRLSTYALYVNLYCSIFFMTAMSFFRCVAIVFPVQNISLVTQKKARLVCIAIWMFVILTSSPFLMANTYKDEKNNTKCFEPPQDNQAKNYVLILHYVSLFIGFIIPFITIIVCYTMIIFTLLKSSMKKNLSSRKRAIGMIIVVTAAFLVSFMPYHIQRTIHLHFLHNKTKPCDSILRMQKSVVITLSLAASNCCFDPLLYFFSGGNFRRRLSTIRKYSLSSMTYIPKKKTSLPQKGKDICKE
Description: The leukotriene antagonist activity of the compounds of this invention is measured by the ability of the compounds to inhibit the leukotriene induced contraction of guinea pig tracheal tissues in vitro and to inhibit leukotriene induced bronchoconstriction in guinea pigs in vivo. The following methodologies were employed: In vitro: Guinea pig (adult male albino Hartley strain) tracheal spiral strips of approximate dimensions 2 to 3 mm cross-sectional width and 3.5 cm length were bathed in modified Krebs buffer in jacketed 10 ml tissue bath and continously aerated with 95% 02 /5% CO2. The tissues were connected via silk suture to force displacement transducers for recording isometric tension. The tissues were equilibrated for 1 hr., pretreated for 15 minutes with meclofenamic acid (1 μM) to remove intrinsic prostaglandin responses, and then pretreated for an additional 30 minutes with either the test compound or vehicle control. A cumulative concentration-response curve for LTD4 on triplicate tissues was generated by successive increases in the bath concentration of the LTD4. In order to minimize intertissue variability, the contractions elicited by LTD4 were standardized as a percentage of the maximum response obtained to a reference agonist, carbachol (10 μM). Calculations: The averages of the triplicate LTD4 concentration-response curves both in the presence and absence of the test compound were plotted on log graph paper. The concentration of LTD4 needed to elicit 30% of the contraction elicited by carbachol was measured and defined as the EC30. The -log KB value for the test compound was determined by the following equations: [formula] In vivo: Anesthetized, spontaneously breathing guinea pigs (Adult male albino Hartley strain) were monitored on a Buxco pulmonary mechanics computer. Changes in airway resistance (RL) were calculated by the computer on a breath-by-breath basis at isovolumic points from signals measuring airflow and transpulmonary pressure using differential pressure transducers. Animals received either test compound or vehicle control intravenously via the jugular vein. LTD4 was then injected into the jugular vein. The bronchoconstriction produced was reflected by % changes in airways resistance relative to the baseline values obtained prior to injection of the test compound or vehicle control. Each guinea pig received either vehicle control or test compound.

[2] = system: LTD4 induced bronchoconstriction in guinea pigs; assay: in vivo inhibition of LTD4 induced bronchoconstriction (airway resistance RL) in guinea pigs; design: species or system guinea pig (adult male albino Hartley strain); conditions: intravenous
Description: The leukotriene antagonist activity of the compounds of this invention is measured by the ability of the compounds to inhibit the leukotriene induced contraction of guinea pig tracheal tissues in vitro and to inhibit leukotriene induced bronchoconstriction in guinea pigs in vivo. The following methodologies were employed: In vitro: Guinea pig (adult male albino Hartley strain) tracheal spiral strips of approximate dimensions 2 to 3 mm cross-sectional width and 3.5 cm length were bathed in modified Krebs buffer in jacketed 10 ml tissue bath and continously aerated with 95% 02 /5% CO2. The tissues were connected via silk suture to force displacement transducers for recording isometric tension. The tissues were equilibrated for 1 hr., pretreated for 15 minutes with meclofenamic acid (1 μM) to remove intrinsic prostaglandin responses, and then pretreated for an additional 30 minutes with either the test compound or vehicle control. A cumulative concentration-response curve for LTD4 on triplicate tissues was generated by successive increases in the bath concentration of the LTD4. In order to minimize intertissue variability, the contractions elicited by LTD4 were standardized as a percentage of the maximum response obtained to a reference agonist, carbachol (10 μM).
Calculations: The averages of the triplicate LTD4 concentration-response curves both in the presence and absence of the test compound were plotted on log graph paper. The concentration of LTD4 needed to elicit 30% of the contraction elicited by carbachol was measured and defined as the EC30. The -log KB value for the test compound was determined by the following equations: [formula] In vivo: Anesthetized, spontaneously breathing guinea pigs (Adult male albino Hartley strain) were monitored on a Buxco pulmonary mechanics computer. Changes in airway resistance (RL) were calculated by the computer on a breath-by-breath basis at isovolumic points from signals measuring airflow and transpulmonary pressure using differential pressure transducers. Animals received either test compound or vehicle control intravenously via the jugular vein. LTD4 was then injected into the jugular vein. The bronchoconstriction produced was reflected by % changes in airways resistance relative to the baseline values obtained prior to injection of the test compound or vehicle control. Each guinea pig received either vehicle control or test compound.
Calculations: The average of 3-6 animals per treatment was calculated using the % changes in the pulmonary parameters for control and test compound-treated animals. The average % inhibition by the test compound was calculated from the following equation: [formula]

[3] = system: arachidonic acid-induced inflammation in mice; assay: arachidonic acid-induced inflammation in mice; format: in vivo
[4] = system: carrageenan peritonitis in mice; assay: carrageenan peritonitis in mice; format: in vivo; conditions: oral administration at 100 mg/kg

| SMILES | Kb [1] [nM] | also measured |
| --- | --- | --- |
| O=C(O)CCSC(SCCC(=O)O)c1ccccc1CCCCCCCCc1ccccc1 [2 2 C8 H16 phenyl H, 4,6-Dithia-5-[2-(8-phenyloctyl)phenyl]nonanedioic acid] | 316 | % Inhibition of RL ([2]; (1) 5 mg/kg): 100%; % Inhibition of RL ([2]; (2) 5 mg/kg): 95.3%; ED50 ([3]; Mus musculus, oral): 105 mg/kg; anti-inflammatory activity ([3]; oral administration): demonstrated anti-inflammatory activity; anti-inflammatory activity ([3]; subcutaneous administration): demonstrated anti-inflammatory activity; anti-inflammatory activity ([3]; topical administration): demonstrated anti-inflammatory activity; activity against carrageenan peritonitis [4]: demonstrated activity |
| CCCCCCCCCCc1ccccc1C(SCCC(=O)O)SCCC(=O)O [2 2 C10 H21 H, 4,6-dithia-5-(2-decylphenyl)nonanedioic acid] | 316 | % Inhibition of RL ([2]; 5 mg/kg): 60.7% |
| O=C(O)CCSC(SCCC(=O)O)c1ccccc1CCCCCCCCCCCC(F)(F)F [2 2 C11 H22 CF3 H, 4,6-Dithia-5-[2-(12,12,12-trifluorododecyl)phenyl]nonanedioic acid] | 631 | % Inhibition of RL ([2]; 5 mg/kg): 30.4% |
| CCCCCCCCCCCCc1ccccc1C(SCCC(=O)O)SCCC(=O)O [2 2 C12 H25 H, 4,6-Dithia-5-(2-dodecylphenyl)nonanedioic acid] | 631 | % Inhibition of RL ([2]; 5 mg/kg): 96.5% |
| O=C(O)CCSC(SCCC(=O)O)c1ccccc1OCCCCCCc1ccccc1 [2 2 OC6 H12 phenyl H, 4,6-Dithia-5-[2-(6-phenylhexyloxy)phenyl]nonanedioic acid] | 5010 | % Inhibition of RL ([2]; 10 mg/kg): 26.4% |
| CCCCCCCCCCCOc1ccccc1C(SCCC(=O)O)SCCC(=O)O [2 2 OC11 H23 H, 4,6-Dithia-5-(2-undecyloxyphenyl)nonanedioic acid] | 398 | % Inhibition of RL ([2]; 10 mg/kg): 89.4% |
| CCCCC/C=C\C/C=C\COc1ccccc1C(SCCC(=O)O)SCCC(=O)O [2 2 OCH2CHCHCH2CHCHC5 H11 H, 4,6-dithia-5-[2-(2(Z),5(Z)-undecadienyloxy)phenyl]nonanedioic acid] | 1000 | – |
| CCCCCCCCCCCSc1ccccc1C(SCCC(=O)O)SCCC(=O)O [2 2 SC11 H23 H, 4,6-Dithia-5-(2-undecylthiophenyl)nonanedioic acid] | 1000 | – |
| CCCCc1ccc(CCCCc2ccccc2C(SCCC(=O)O)SCCC(=O)O)cc1 [2 2 [drawing 19] H, 4,6-Dithia-5-[2-(4-(4-butylphenyl)butyl)phenyl]nonanedioic acid] | 2510 | – |
| CCCc1c(OCCCCCOc2ccccc2C(SCCC(=O)O)SCCC(=O)O)ccc(C(C)=O)c1O [4,6-Dithia-5-[2-(5-(4-acetyl-3-hydroxy-2-propylphenoxy)-pentoxy)phenyl]nonanedioic acid] | 251 | – |
| CCCCCCCCCCCOc1ccccc1C(C)(SCCC(=O)O)SCCC(=O)O [4,6-dithia-5-methyl-5-(2-undecyloxyphenyl)nonanedioic acid] | 5010 | – |
| CCCCCCCCCCCCc1ccccc1C(SCCC(=O)O)[S+]([O-])CCC(=O)O (centres unmarked) [5-(2-dodecylphenyl)-4-sulfinyl-6-thianonanedioic acid] | 1580 | – |
| CCCCCCCCCCCCc1ccsc1C(SCCC(=O)O)SCCC(=O)O [Formula (V) 2 2 C12 H25 H, 4,6-dithia-5-(3-dodecyl-2-thienyl)nonanedioic acid] | 1260 | – |
| CCCCCCCCCCCCc1csc(C(SCCC(=O)O)SCCC(=O)O)c1 [Formula (V) 2 2 H C12 H25, 4,6-Dithia-5-(4-dodecyl-2-thienyl)nonanedioic acid] | 3160 | – |
